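96-well plates; 48 h exposure; 5 concentrations. Endpoints by linear interpolation between flanking doses. Not reached: highest tested concentration assigned. GI50 = concentration required for 50% inhibition of growth.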 Calls of active or inactive are those of the source. Rule as the data show it: active = GI50 up to about 1.1 µM and inactive = higher.
Legend:
Assay in all cases: NCI-60 cell line screen, 48 h
[1] = test system: A549
[2] = test system: SK-MEL-5
[3] = test system: UO-31
[4] = test system: OVCAR-3
[5] = test system: TK-10
[6] = test system: OVCAR-8
[7] = test system: SK-MEL-28
[8] = test system: DMS-273
[9] = test system: HL-60
[10] = test system: SK-MEL-2
[11] = test system: M19-MEL
[12] = test system: HOP-92
[13] = test system: OVCAR-4
[14] = test system: M14
[15] = test system: DLD-1
[16] = test system: DMS-114
[17] = test system: SF-539
[18] = test system: NCI-H460
[19] = test system: HCC 2998
[20] = test system: SF-295
[21] = test system: RPMI-8226
[22] = test system: LXFL 529
[23] = test system: LOX IMVI
[24] = test system: HT-29
[25] = test system: MOLT-4
[26] = test system: SF-268
[27] = test system: K562
[28] = test system: 786-0
[29] = test system: RXF 393
[30] = test system: SW-620
[31] = test system: SNB-75
[32] = test system: KM-20L2
[33] = test system: XF498
[34] = test system: HOP-62
[35] = test system: HCT-15
[36] = test system: U-251
[37] = test system: RXF 631
[38] = test system: OVCAR-5
[39] = test system: A498
[40] = test system: IGROV-1
[41] = test system: SK-OV-3
[42] = test system: ACHN
[43] = test system: UACC-62
[44] = test system: CAKI-1
[45] = test system: NCI-H522
[46] = test system: Malme-3M
[47] = test system: EKVX
[48] = test system: SNB-78
[49] = test system: CCRF-CEM
[50] = test system: SNB-19
[51] = test system: COLO 205
[52] = test system: NCI-H23
[53] = test system: KM12
[54] = test system: SN12C
[55] = test system: SR
[56] = test system: UACC-257

Measured: GI50

Cc1cc(C)n(-c2c(O)ccc(O)c2-n2nc(C)cc2C)n1
inactive: [1] > 100 µM | [2] > 100 µM | [3] > 100 µM | [4] > 100 µM | [5] > 100 µM | [6] > 100 µM | [7] > 100 µM | [8] > 100 µM | [9] > 100 µM | [10] > 100 µM | [11] 71.6 µM | [12] > 100 µM | [13] > 100 µM | [14] > 100 µM | [15] > 100 µM | [16] > 100 µM | [17] > 100 µM | [18] > 100 µM | [19] > 100 µM | [20] 81.3 µM | [21] > 100 µM | [22] > 100 µM | [23] > 100 µM | [24] > 100 µM | [25] > 100 µM | [26] > 100 µM | [27] > 100 µM | [28] > 100 µM | [29] > 100 µM | [30] > 100 µM | [31] > 100 µM | [32] > 100 µM | [33] > 100 µM | [34] > 100 µM | [36] > 100 µM | [37] > 100 µM | [38] > 100 µM | [39] > 100 µM | [40] > 100 µM | [41] > 100 µM | [42] > 100 µM | [43] > 100 µM | [44] > 100 µM | [45] > 100 µM | [46] > 100 µM | [47] > 100 µM | [48] > 100 µM | [49] > 100 µM | [50] > 100 µM | [51] > 100 µM | [52] > 100 µM | [53] > 100 µM | [54] > 100 µM
> 100 µM: [35]

Oc1cc(-c2ccco2)nc2cc3c(cc12)OCO3
38.3 µM: [35]
inactive: [1] 52.8 µM | [3] 46.2 µM | [5] 72.6 µM | [7] > 100 µM | [8] 20 µM | [9] 27.7 µM | [10] 57.8 µM | [11] 44.9 µM | [13] 34.1 µM | [15] 39 µM | [17] 25.7 µM | [18] 34.3 µM | [19] > 100 µM | [21] 40.1 µM | [22] 58.9 µM | [23] 50.6 µM | [24] 43.3 µM | [25] 33.7 µM | [27] 6.61 µM | [28] 26.5 µM | [30] 25.9 µM | [31] 12.5 µM | [33] 39.8 µM | [34] 10.9 µM | [55] 54.3 µM | [36] > 100 µM | [37] 52.2 µM | [39] 35.6 µM | [40] 29.6 µM | [56] 60 µM | [42] 91 µM | [43] 27.9 µM | [46] 42.4 µM | [47] > 100 µM | [49] 38.4 µM | [50] 27.1 µM | [51] 17.6 µM | [52] 80.9 µM | [54] 55.5 µM
